Tests used:
[1] = target: T1, Ephrin type-B receptor 3 (Homo sapiens) (UniProt P54753); assay: Inhibition of EphB3 at 1 uM; values are per cent of control
T1 sequence (whole entry): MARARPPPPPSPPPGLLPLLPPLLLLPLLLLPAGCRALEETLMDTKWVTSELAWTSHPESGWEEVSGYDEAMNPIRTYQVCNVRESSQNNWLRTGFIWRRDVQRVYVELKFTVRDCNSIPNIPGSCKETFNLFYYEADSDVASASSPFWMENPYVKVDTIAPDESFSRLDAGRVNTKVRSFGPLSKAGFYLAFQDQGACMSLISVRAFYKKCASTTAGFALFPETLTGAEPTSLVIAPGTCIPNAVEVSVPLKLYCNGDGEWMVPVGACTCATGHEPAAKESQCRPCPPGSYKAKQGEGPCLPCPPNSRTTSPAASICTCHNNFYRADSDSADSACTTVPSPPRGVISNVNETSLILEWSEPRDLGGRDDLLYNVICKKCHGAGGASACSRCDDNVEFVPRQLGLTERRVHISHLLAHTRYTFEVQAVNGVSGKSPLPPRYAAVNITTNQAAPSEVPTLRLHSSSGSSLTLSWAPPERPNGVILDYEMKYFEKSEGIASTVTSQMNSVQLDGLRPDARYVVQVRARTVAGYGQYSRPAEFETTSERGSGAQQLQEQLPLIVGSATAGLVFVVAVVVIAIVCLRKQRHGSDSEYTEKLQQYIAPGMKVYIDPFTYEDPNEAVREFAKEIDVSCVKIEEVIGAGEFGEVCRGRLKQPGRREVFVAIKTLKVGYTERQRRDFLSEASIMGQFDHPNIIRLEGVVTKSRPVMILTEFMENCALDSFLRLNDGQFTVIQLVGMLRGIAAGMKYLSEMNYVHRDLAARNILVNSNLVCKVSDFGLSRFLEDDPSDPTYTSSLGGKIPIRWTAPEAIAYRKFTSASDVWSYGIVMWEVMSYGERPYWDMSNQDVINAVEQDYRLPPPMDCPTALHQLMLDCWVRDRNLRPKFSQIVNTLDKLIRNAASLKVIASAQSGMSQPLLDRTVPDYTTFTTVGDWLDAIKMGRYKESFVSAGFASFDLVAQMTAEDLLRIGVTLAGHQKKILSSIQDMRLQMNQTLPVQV

[2] = target: T2, Serine/threonine-protein kinase D2 (Homo sapiens) (UniProt Q9BZL6); assay: Inhibition of PKD2 at 0.1 uM; values are per cent of control
T2 sequence (whole entry): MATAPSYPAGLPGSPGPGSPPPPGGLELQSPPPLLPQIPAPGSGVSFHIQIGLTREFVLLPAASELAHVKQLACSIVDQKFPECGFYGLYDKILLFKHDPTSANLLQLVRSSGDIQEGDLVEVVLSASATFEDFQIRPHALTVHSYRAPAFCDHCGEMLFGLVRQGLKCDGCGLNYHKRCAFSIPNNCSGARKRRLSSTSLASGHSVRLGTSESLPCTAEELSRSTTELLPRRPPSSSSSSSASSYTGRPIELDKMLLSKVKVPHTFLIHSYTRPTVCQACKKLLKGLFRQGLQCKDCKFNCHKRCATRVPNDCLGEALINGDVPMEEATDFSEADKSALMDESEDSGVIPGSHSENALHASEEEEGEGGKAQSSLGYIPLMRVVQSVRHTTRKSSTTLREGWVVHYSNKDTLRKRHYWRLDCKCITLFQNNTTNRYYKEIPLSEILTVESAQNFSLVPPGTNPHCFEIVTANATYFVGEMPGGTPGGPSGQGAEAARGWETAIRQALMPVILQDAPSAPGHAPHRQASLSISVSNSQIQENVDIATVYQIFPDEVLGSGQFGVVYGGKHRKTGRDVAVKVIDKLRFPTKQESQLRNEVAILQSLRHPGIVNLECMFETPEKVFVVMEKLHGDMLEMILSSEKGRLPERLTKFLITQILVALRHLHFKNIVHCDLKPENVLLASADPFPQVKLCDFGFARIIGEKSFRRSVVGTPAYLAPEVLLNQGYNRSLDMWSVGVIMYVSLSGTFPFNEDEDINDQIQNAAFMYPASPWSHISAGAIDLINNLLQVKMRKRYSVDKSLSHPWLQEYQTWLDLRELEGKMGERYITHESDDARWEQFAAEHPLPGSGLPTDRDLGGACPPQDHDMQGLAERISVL

[3] = target: Fibroblast growth factor receptor 1 (Homo sapiens) (UniProt P11362); assay: Inhibition of FGFR1 at 0.1 uM; values are per cent of control
[4] = target: Tyrosine-protein kinase Fes/Fps (Homo sapiens) (UniProt P07332); assay: Inhibition of Fes at 0.1 uM; values are per cent of control
[5] = target: T3, Ephrin type-A receptor 1 (Homo sapiens) (UniProt P21709); assay: Inhibition of EphA1 at 1 uM; values are per cent of control
T3 sequence (whole entry): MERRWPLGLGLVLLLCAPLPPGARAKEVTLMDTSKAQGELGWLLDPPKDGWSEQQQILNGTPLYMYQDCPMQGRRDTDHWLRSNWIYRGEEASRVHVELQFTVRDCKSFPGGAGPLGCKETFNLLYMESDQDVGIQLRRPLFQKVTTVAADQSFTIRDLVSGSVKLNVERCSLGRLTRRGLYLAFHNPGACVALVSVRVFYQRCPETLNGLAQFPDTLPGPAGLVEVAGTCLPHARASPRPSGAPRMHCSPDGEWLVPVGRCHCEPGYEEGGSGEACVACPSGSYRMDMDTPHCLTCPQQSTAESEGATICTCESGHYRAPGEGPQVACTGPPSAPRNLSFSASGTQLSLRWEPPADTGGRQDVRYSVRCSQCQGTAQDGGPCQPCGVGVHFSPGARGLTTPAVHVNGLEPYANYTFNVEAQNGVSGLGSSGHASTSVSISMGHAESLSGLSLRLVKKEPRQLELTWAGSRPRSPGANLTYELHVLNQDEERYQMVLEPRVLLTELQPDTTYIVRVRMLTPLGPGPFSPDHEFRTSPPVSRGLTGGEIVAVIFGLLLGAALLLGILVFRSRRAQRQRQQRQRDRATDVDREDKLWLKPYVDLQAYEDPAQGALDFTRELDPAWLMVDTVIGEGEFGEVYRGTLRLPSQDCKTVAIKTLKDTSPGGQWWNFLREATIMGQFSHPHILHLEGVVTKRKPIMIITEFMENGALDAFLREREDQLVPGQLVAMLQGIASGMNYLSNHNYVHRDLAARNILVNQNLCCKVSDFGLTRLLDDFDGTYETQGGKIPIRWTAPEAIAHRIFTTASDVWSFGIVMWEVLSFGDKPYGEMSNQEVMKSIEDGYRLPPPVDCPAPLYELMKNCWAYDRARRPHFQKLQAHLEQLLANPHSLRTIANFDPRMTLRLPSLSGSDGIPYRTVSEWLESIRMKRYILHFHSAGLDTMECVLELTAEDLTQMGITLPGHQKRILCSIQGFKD

Fibroblast growth factor receptor 1 (Homo sapiens), sequence (P11362 22-822 limits assumed): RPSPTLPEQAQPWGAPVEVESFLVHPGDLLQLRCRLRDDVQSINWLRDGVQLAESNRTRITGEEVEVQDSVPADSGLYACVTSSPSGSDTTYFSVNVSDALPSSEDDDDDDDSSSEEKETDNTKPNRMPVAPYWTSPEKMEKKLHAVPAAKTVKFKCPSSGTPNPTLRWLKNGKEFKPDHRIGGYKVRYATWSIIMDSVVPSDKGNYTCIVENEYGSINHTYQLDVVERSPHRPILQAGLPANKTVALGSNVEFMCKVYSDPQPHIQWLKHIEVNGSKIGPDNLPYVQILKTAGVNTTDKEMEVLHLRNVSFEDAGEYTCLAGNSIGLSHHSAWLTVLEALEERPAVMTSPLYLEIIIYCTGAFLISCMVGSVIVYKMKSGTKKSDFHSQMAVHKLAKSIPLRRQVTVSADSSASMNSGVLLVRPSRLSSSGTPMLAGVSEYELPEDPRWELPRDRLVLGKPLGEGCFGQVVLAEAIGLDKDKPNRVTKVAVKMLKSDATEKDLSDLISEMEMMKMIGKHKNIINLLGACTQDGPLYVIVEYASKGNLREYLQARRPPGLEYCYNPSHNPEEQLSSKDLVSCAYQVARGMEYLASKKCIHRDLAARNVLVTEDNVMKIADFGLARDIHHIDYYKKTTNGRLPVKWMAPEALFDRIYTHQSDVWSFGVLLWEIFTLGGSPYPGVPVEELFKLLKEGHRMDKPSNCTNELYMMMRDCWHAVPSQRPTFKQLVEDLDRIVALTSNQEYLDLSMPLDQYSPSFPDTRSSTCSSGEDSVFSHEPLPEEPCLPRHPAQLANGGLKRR
Tyrosine-protein kinase Fes/Fps (Homo sapiens), sequence (P07332 whole entry): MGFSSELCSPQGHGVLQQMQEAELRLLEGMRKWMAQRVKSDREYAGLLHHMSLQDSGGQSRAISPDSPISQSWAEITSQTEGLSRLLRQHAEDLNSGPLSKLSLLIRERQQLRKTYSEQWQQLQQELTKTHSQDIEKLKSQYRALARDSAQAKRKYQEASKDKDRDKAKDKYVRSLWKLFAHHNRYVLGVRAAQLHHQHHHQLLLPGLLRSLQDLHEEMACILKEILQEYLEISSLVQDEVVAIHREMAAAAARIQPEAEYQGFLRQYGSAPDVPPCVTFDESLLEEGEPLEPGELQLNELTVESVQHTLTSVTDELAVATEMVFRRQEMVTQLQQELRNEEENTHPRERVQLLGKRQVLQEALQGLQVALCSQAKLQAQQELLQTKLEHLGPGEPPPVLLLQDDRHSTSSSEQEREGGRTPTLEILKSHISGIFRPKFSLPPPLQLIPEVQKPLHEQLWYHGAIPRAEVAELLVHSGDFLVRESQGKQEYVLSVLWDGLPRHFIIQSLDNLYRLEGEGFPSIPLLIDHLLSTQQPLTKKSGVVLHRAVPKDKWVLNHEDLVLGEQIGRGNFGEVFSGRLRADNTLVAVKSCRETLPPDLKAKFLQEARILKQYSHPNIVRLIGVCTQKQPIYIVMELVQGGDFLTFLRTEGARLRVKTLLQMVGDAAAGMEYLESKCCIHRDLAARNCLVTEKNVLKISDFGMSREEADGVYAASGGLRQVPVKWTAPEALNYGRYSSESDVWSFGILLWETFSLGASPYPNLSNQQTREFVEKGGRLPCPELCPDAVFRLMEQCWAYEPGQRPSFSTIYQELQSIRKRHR

## Cc1ccc2cc(-c3n[nH]c4ccc(NC5CCN(Cc6ccccc6)CC5)cc34)[nH]c2c1
[1]
  residual activity: 119%
[2]
  residual activity: 93%
[3]
  residual activity: 2%
[4]
  residual activity: 28%
[5]
  residual activity: 12%

## Cc1ccc2cc(-c3n[nH]c4ccc(NC5CCNC5)cc34)[nH]c2c1 (stereo not given)
[1]
  residual activity: 105%
[2]
  residual activity: 41%
[3]
  residual activity: 0%
[4]
  residual activity: 3%
[5]
  residual activity: 5%
